Reference: PubChem BioAssay AID330 (DTP/NCI, 2004)
Several values for one entry are separate records, joined by “and”; a condition that tells them apart may be missing. Equal values may be shown once. Toxic doses and inconclusive results are not listed.

Tested on: P388 leukemia ip, CD2F1 mice, survival T/C
Test: NCI In Vivo Anticancer Drug Screen. Data for tumor model P388 Leukemia (intraperitoneal) in CD2F1 (CDF1) mice
Conditions: endpoint: median survival time, higher = longer survival
In short: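 Mice carrying the transplanted tumor received test compound or vehicle. Survival was recorded in each group, and the value is the treated-group measurement divided by that of the vehicle-treated control group.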

[1] = dose: 100.0 mg/kg/injection, schedule: Q04DX002 (ip), vehicle: saline with Tween-80
[2] = dose: 200.0 mg/kg/injection, schedule: Q04DX002 (ip), vehicle: saline with Tween-80
[3] = dose: 400.0 mg/kg/injection, schedule: Q04DX002 (ip), vehicle: saline with Tween-80
[4] = dose: 50.0 mg/kg/injection, schedule: Q01DX005 (ip), vehicle: saline with Tween-80
[5] = dose: 60.0 mg/kg/injection, schedule: Q01DX005 (ip), vehicle: saline with Tween-80
[6] = dose: 120.0 mg/kg/injection, schedule: Q01DX005 (ip), vehicle: saline with Tween-80
[7] = dose: 50.0 mg/kg/injection, schedule: Q01DX005 (ip), vehicle: Klucel (hydroxypropylcellulose) (HPC)

SMILES: O=C(Nc1nncs1)c1ccncc1
- T/C (dose: 50.0 mg/kg/injection, schedule: Q04DX002 (ip), vehicle: saline with Tween-80): 104 % of control
- T/C [1]: 112 % of control
- T/C [2]: 157 % of control
- T/C [3]: 153 % of control and 164 % of control

SMILES: CC(=O)Nc1ccccc1/C=C/c1ccccn1
- T/C (dose: 100.0 mg/kg/injection, schedule: Q01DX001 (ip), vehicle: saline with Tween-80): 106 % of control
- T/C (dose: 200.0 mg/kg/injection, schedule: Q01DX001 (ip), vehicle: saline with Tween-80): 106 % of control
- T/C (dose: 400.0 mg/kg/injection, schedule: Q01DX001 (ip), vehicle: saline with Tween-80): 95 % of control

SMILES: N=[N+]=NC1C(O)C(CO)OC1n1cnc2c(N)ncnc21 (stereo not given)
- T/C (dose: 5.0 mg/kg/injection, schedule: Q03HX016 (ip), vehicle: Klucel (hydroxypropylcellulose) (HPC)): 118 % of control
- T/C (dose: 10.0 mg/kg/injection, schedule: Q03HX016 (ip), vehicle: Klucel (hydroxypropylcellulose) (HPC)): 110 % of control
- T/C (dose: 80.0 mg/kg/injection, schedule: Q03HX016 (ip), vehicle: Klucel (hydroxypropylcellulose) (HPC)): 153 % of control
- T/C (dose: 160.0 mg/kg/injection, schedule: Q03HX016 (ip), vehicle: Klucel (hydroxypropylcellulose) (HPC)): 64 % of control

SMILES: NC1=C(O)C(=O)C(c2ccccn2)O1 (stereo not given)
- T/C (dose: 25.0 mg/kg/injection, schedule: Q01DX001 (ip), vehicle: other): 105 % of control
- T/C (dose: 50.0 mg/kg/injection, schedule: Q01DX001 (ip), vehicle: other): 119 % of control
- T/C (dose: 100.0 mg/kg/injection, schedule: Q01DX001 (ip), vehicle: other): 116 % of control

SMILES: c1ccc(Cc2cc(-c3cc(Cc4ccccc4)[nH]n3)n[nH]2)cc1
- T/C (dose: 60.0 mg/kg/injection, schedule: Q01DX005 (ip), vehicle: Klucel + Tween-80): 101 % of control
- T/C (dose: 120.0 mg/kg/injection, schedule: Q01DX005 (ip), vehicle: Klucel + Tween-80): 106 % of control
- T/C (dose: 240.0 mg/kg/injection, schedule: Q01DX005 (ip), vehicle: Klucel + Tween-80): 107 % of control

SMILES: CC(=O)Nc1ccc(SSc2ccc(NC(C)=O)c3cccnc23)c2ncccc12
- T/C (dose: 0.78 mg/kg/injection, schedule: Q01DX005 (ip), vehicle: saline with Tween-80): 91 % of control
- T/C (dose: 1.56 mg/kg/injection, schedule: Q01DX005 (ip), vehicle: saline with Tween-80): 91 % of control
- T/C (dose: 3.13 mg/kg/injection, schedule: Q01DX005 (ip), vehicle: saline with Tween-80): 90 % of control
- T/C (dose: 12.5 mg/kg/injection, schedule: Q01DX005 (ip), vehicle: saline with Tween-80): 86 % of control
- T/C (dose: 25.0 mg/kg/injection, schedule: Q01DX005 (ip), vehicle: saline with Tween-80): 95 % of control
- T/C [4]: 115 % of control

SMILES: [NH-]C(CCC(N)=O)C(=O)O.[NH-]C(CCCCN)C(=O)O.[Zn+2] (stereo not given)
- T/C (dose: 12.5 mg/kg/injection, schedule: Q01DX005 (ip), vehicle: saline): 102 % of control
- T/C (dose: 25.0 mg/kg/injection, schedule: Q01DX005 (ip), vehicle: saline): 105 % of control
- T/C (dose: 50.0 mg/kg/injection, schedule: Q01DX005 (ip), vehicle: saline): 110 % of control

SMILES: Oc1c(C(Nc2cccc3cccnc23)c2ccccc2)ccc2cccnc12 (stereo not given)
- T/C (dose: 25.0 mg/kg/injection, schedule: Q01DX009 (ip), vehicle: Klucel (hydroxypropylcellulose) (HPC)): 110 % of control
- T/C (dose: 50.0 mg/kg/injection, schedule: Q01DX009 (ip), vehicle: Klucel (hydroxypropylcellulose) (HPC)): 106 % of control and 111 % of control
- T/C (dose: 100.0 mg/kg/injection, schedule: Q01DX009 (ip), vehicle: Klucel (hydroxypropylcellulose) (HPC)): 106 % of control and 107 % of control

SMILES: O=C1CC2OCC=C3CN4CCC56c7ccccc7N1C5C2C3CC46 (stereo not given)
- T/C (dose: 0.2 mg/kg/injection, schedule: Q01DX009 (ip), vehicle: saline with Tween-80): 100 % of control
- T/C (dose: 0.4 mg/kg/injection, schedule: Q01DX009 (ip), vehicle: saline with Tween-80): 102 % of control
- T/C (dose: 0.8 mg/kg/injection, schedule: Q01DX009 (ip), vehicle: saline with Tween-80): 97 % of control

SMILES: CN1NC(c2ccc(N(C)C)cc2)(c2ccc(N(C)C)cc2)c2ccc(N(C)C)cc2C1=O
- T/C [1]: 90 % of control
- T/C [2]: 88 % of control
- T/C [3]: 88 % of control

SMILES: N#Cc1ccc(OC(=O)Nc2c(Cl)cc(Cl)cc2Cl)cc1
- T/C [5]: 100 % of control
- T/C [6]: 92 % of control

SMILES: COc1ccccc1[N+]([O-])=NC#N
- T/C (dose: 6.25 mg/kg/injection, schedule: Q04DX003 (ip), vehicle: Klucel (hydroxypropylcellulose) (HPC)): 107 % of control
- T/C (dose: 12.5 mg/kg/injection, schedule: Q04DX003 (ip), vehicle: Klucel (hydroxypropylcellulose) (HPC)): 111 % of control
- T/C (dose: 25.0 mg/kg/injection, schedule: Q04DX003 (ip), vehicle: Klucel (hydroxypropylcellulose) (HPC)): 99 % of control

SMILES: C=CCNCC(O)C(F)(F)C(F)(F)C(F)(F)C(F)(F)C(F)(F)C(F)(F)F (stereo not given)
- T/C [5]: 101 % of control
- T/C [6]: 101 % of control
- T/C (dose: 240.0 mg/kg/injection, schedule: Q01DX005 (ip), vehicle: saline with Tween-80): 109 % of control

SMILES: CC(C)C[C@H](O)C(=O)O
- T/C (dose: 50.0 mg/kg/injection, schedule: Q04DX003 (ip), vehicle: saline): 100 % of control
- T/C (dose: 100.0 mg/kg/injection, schedule: Q04DX003 (ip), vehicle: saline): 100 % of control
- T/C (dose: 200.0 mg/kg/injection, schedule: Q04DX003 (ip), vehicle: saline): 100 % of control

SMILES: COc1c(OC)c(OC)c(-c2cc(=O)c3c(OC)c(OC)c(OC)c(OC)c3o2)c(OC)c1OC
- T/C [7]: 94 % of control
- T/C (dose: 100.0 mg/kg/injection, schedule: Q01DX005 (ip), vehicle: Klucel (hydroxypropylcellulose) (HPC)): 88 % of control
- T/C (dose: 200.0 mg/kg/injection, schedule: Q01DX005 (ip), vehicle: Klucel (hydroxypropylcellulose) (HPC)): 91 % of control

SMILES: NC(=O)C1CCCN(C2OC(COP(=O)(O)OP(=O)(O)OCC3OC(n4cnc5c(=O)[nH]c(N)nc54)C(O)C3O)C(O)C2O)C1 (stereo not given)
- T/C [4]: 100 % of control
- T/C (dose: 100.0 mg/kg/injection, schedule: Q01DX005 (ip), vehicle: saline with Tween-80): 104 % of control
- T/C (dose: 200.0 mg/kg/injection, schedule: Q01DX005 (ip), vehicle: saline with Tween-80): 100 % of control

SMILES: CS(=O)(=O)OCCN(CCOS(C)(=O)=O)c1ccc(C=Nc2ccc3oc(=O)ccc3c2)cc1
- T/C (dose: 50.0 mg/kg/injection, schedule: Q01DX009 (ip), vehicle: saline with Tween-80): 104 % of control
- T/C (dose: 100.0 mg/kg/injection, schedule: Q01DX009 (ip), vehicle: saline with Tween-80): 113 % of control
- T/C (dose: 132.0 mg/kg/injection, schedule: Q04DX003 (ip), vehicle: saline with Tween-80): 150 % of control
- T/C (dose: 300.0 mg/kg/injection, schedule: Q04DX003 (ip), vehicle: saline with Tween-80): 122 % of control

SMILES: CCOC(=O)C1(O)CC2(CCC(OCc3ccccc3)CC2)C(=O)O1 (stereo not given)
- T/C (dose: 50.0 mg/kg/injection, schedule: Q01DX009 (ip), vehicle: saline): 102 % of control
- T/C (dose: 100.0 mg/kg/injection, schedule: Q01DX009 (ip), vehicle: saline): 100 % of control
- T/C (dose: 200.0 mg/kg/injection, schedule: Q01DX009 (ip), vehicle: saline): 98 % of control

SMILES: CC(C)N(C(C)C)P1N(C(C)(C)C)N=NN1C(C)(C)C
- T/C (dose: 12.5 mg/kg/injection, schedule: Q01DX005 (ip), vehicle: Klucel (hydroxypropylcellulose) (HPC)): 102 % of control
- T/C (dose: 25.0 mg/kg/injection, schedule: Q01DX005 (ip), vehicle: Klucel (hydroxypropylcellulose) (HPC)): 100 % of control
- T/C [7]: 102 % of control and 107 % of control

SMILES: CN(CCO)CC(O)Cn1cnc2c(N)ncnc21 (stereo not given)
- T/C (dose: 60.0 mg/kg/injection, schedule: Q01DX005 (ip), vehicle: saline): 95 % of control
- T/C (dose: 120.0 mg/kg/injection, schedule: Q01DX005 (ip), vehicle: saline): 97 % of control
- T/C (dose: 240.0 mg/kg/injection, schedule: Q01DX005 (ip), vehicle: saline): 100 % of control

SMILES: COc1ccc(C2COc3cc4occc4cc3C2=O)c(OC)c1OC (stereo not given)
- T/C (dose: 11.25 mg/kg/injection, schedule: Q01DX005 (ip), vehicle: Klucel (hydroxypropylcellulose) (HPC)): 99 % of control
- T/C (dose: 22.5 mg/kg/injection, schedule: Q01DX005 (ip), vehicle: Klucel (hydroxypropylcellulose) (HPC)): 97 % of control
- T/C (dose: 45.0 mg/kg/injection, schedule: Q01DX005 (ip), vehicle: Klucel (hydroxypropylcellulose) (HPC)): 95 % of control
- T/C (dose: 90.0 mg/kg/injection, schedule: Q01DX005 (ip), vehicle: Klucel (hydroxypropylcellulose) (HPC)): 97 % of control
- T/C (dose: 180.0 mg/kg/injection, schedule: Q01DX005 (ip), vehicle: Klucel (hydroxypropylcellulose) (HPC)): 99 % of control
